This is an account of results in patent US7683095B2, “Compositions and methods of treating, reducing and preventing cardiovascular diseases and disorders with polymethoxyflavones” (The United States of America as represented by the …, priority 1998, dated 2010).

≈ marks a conversion by molar mass, not a printed value.

This assay relates to apolipoprotein B (apoB) production. Briefly: apo B secretion into medium of HepG2 cells, competitive ELISA. The class given is cell-based, human. The settings on record: for inhibitory effect on apo-B production: result in words, these results along with other preliminary studies, alone or in combination; for % apo B reduction / Apo B μg/mL medium / % apo B in medium: HepG2, 24 hours; for IC50: Homo sapiens, apo B in medium of HepG2 cells, 24 hours incubation, read-out: IC50 concentrations; for % apo B in medium: percent of control. The protocol:
Limocitrin derivatives, quercetin derivatives, naturally occurring polymethoxyflavones, and tocotrienols were tested for cholesterol lowering activity in HepG2 cells. Confluent HepG2 cells were preincubated for 24 hours in a lipoprotein-free medium (Minimum Essential Medium (MEM), Life Technologies, Burlington, Canada) in which the fetal bovine serum (Life Technologies, Burlington, Canada) was replaced by bovine serum albumin (BSA, Life Technologies, Burlington, Canada) to inhibit cell proliferation and to stimulate synthesis of cholesterol-containing lipoproteins. Cells were subsequently incubated for another 24 hours in the same medium in the presence or absence of limocitrin derivatives, quercetin derivatives, naturally occurring polymethoxyflavones, or tocotrienols (See Table 1) at the highest concentrations sustaining about 100%±10% cell viability, as determined by the 3-(4,5-dimethylthiazol-2-yl)-2,5-diphenyltetrazolium bromide (MTT) viability assay. The test compounds were added to the cell culture medium after solubilization in dimethyl sulfoxide (DMSO) and filter sterilized. […] For each experiment, equal concentrations of solvent were added to all treatment media and to a control medium (without tested compounds). At the end of the incubation, culture media were collected and the concentration of the LDL structural protein, apo-B, was measured by ELISA. The competitive Elisa assay kit for determination of human apo B (Ortho Diagostics, LaJolla, Calif.) measures medium apo B concentrations within the range 0.4-0.031 μg/mL. In this assay, microtiter 96-well plates are coated with monoclonal antibody against human apo B, which binds apo B epitope from human LDL (standard curve, control sera with high and low content of human apo B) or from LDL-like lipoproteins secreted by HepG2 cells (tested media, usually 2× diluted with Ca^2+- and […]-free phosphate buffered saline (PBS)). After the exposure, a fraction of antibody is blocked and the remaining amount is captured by a subsequent incubation with conjugate containing a secondary antibody (against anti-human apo B) coupled with horseradish peroxidase. The following incubation with horseradish peroxidase substrate, o-phenylenediamine, produces a yellow color change proportional to the amount of apo B present, and the optical density of samples is measured at 490-492 nm against the blank PBS/conjugate wells. To determine whether evaluated compounds cross-react with Elisa assay, in separate study, various doses of compounds were tested in presence of cell-free culture media.
Amount of lipoprotein-associated apo-B in the media net apo-B secretion) was determined as described above, and calculated per mg cell protein. Net apo B3 secretion was also expressed as percent of control (amount of apo B in medium from cells incubated without tested compounds).
(An ELISA detects its analyte on a solid surface through an enzyme-linked reagent.)

[1] abbreviates: concentration 6.25 μg/mL medium.
[2] abbreviates: concentration 12.5 μg/mL medium.
Setting [3] is: concentration 25.0 μg/mL medium.
The mark [4] stands for this setting: concentration 50.0 μg/mL medium.
Setting [5] is: concentration 3.12 μg/mL medium.

As for `COc1cc(OC)c2c(=O)c(O)c(-c3ccc(OC)c(OC)c3)oc2c1` [quercetin-5,7,3′,4′-tetramethylether, 3-hydroxy-5,7,3′,4′-tetramethoxyflavone], the “inhibitory effect on apo-B production” value is reported as “inhibitory effects”.

Take `COc1ccc(-c2oc3c(OC)c(OC)cc(O)c3c(=O)c2OC)cc1OC` [limocitrin-3,7,4′-trimethylether, 5-hydroxy-3,7,8,3′,4′-pentamethoxyflavone]: the “inhibitory effect on apo-B production” value is “inhibitory effects”.

In the case of `COc1ccc(-c2cc(=O)c3c(OC)c(OC)c(OC)c(OC)c3o2)cc1OC` [nobiletin, 5,6,7,8,3′,4′-hexamethoxyflavone], the IC50 came to 4.9 µg/mL (≈ 12.2 µM) and the “inhibitory effect on apo-B production” value is recorded as “inhibitory effects”. In addition, under setting [1], the “% apo B reduction” value was 33%, the “Apo B μg/mL medium” value stood at 0.37 ± 0.09 μg/mL medium and the “% apo B in medium” value worked out at 67 ± 16%. Also, under setting [2], the “% apo B reduction” value was 68%, the “Apo B μg/mL medium” value is 0.175 ± 0.03 μg/mL medium and the “% apo B in medium” value is on record as 32 ± 6%. Besides, under setting [3], the “% apo B reduction” value came out at 82%, the “Apo B μg/mL medium” value is reported as 0.10 ± 0.01 μg/mL medium and the “% apo B in medium” value worked out at 18 ± 1%. Besides, under setting [4], the “% apo B reduction” value was 83%, the “Apo B μg/mL medium” value is 0.095 ± 0.01 μg/mL medium and the “% apo B in medium” value turned out to be 17 ± 1%.

Turning to `COc1c(-c2ccc(OCc3ccccc3)c(OCc3ccccc3)c2)oc2cc(OCc3ccccc3)cc(OC)c2c1=O` [quercetin-3,5-dimethylether-7,3′,4′-tribenzyl ether], the “inhibitory effect on apo-B production” value is on record as “inhibitory effects”.

On to `COc1ccc(-c2cc(=O)c3c(O)c(OC)c(OC)c(OC)c3o2)cc1OC` [5-desmethylnobiletin, 5-hydroxy-6,7,8,3′,4′-pentamethoxyflavone], for which the “inhibitory effect on apo-B production” value is “inhibitory effects”.

On to `COc1cc(O)c2c(=O)c(OC)c(-c3ccc(OC)c(OC)c3)oc2c1` [quercetin tetramethylether, 5-hydroxy-3,7,3′,4′-tetramethoxyflavone], for which the “inhibitory effect on apo-B production” value is recorded as “inhibitory effects”.

For `COc1ccc(-c2oc3c(OC)c(OC)cc(OC)c3c(=O)c2OC)cc1OC` [limocitrin-3,5,7,4′-tetramethylether, 3,5,7,8,3′,4′-hexamethoxyflavone], the “inhibitory effect on apo-B production” value is “inhibitory effects”.

Consider `COc1ccc(-c2cc(=O)c3c(O)c(OC)c(OC)cc3o2)cc1OC` [5-desmethylsinensetin, 5-hydroxy-6,7,3′,4′-tetramethoxyflavone], for which the “inhibitory effect on apo-B production” value is “inhibitory effects”. Also, under setting [3], the “% apo B reduction” value is recorded as 27%, the “Apo B μg/mL medium” value came to 0.84 ± 0.21 μg/mL medium and the “% apo B in medium” value came out at 73 ± 18%. For the same compound, under setting [4], the “% apo B reduction” value was 64%, the “Apo B μg/mL medium” value is on record as 0.41 ± 0.20 μg/mL medium and the “% apo B in medium” value came out at 36 ± 1%.

For `COc1ccc(-c2cc(=O)c3c(OC)c(OC)c(OC)cc3o2)cc1OC` [Sinensetin, 5,6,7,3′,4′-pentamethoxyflavone], the IC50 worked out at 17.8 µg/mL (≈ 47.8 µM) and the “inhibitory effect on apo-B production” value is reported as “inhibitory effects”. Under setting [1], the “% apo B reduction” value is given as 25%, the “Apo B μg/mL medium” value is on record as 0.70 ± 0.13 μg/mL medium and the “% apo B in medium” value amounted to 75 ± 14%. Under setting [2], the “% apo B reduction” value is given as 42%, the “Apo B μg/mL medium” value came to 0.54 ± 0.04 μg/mL medium and the “% apo B in medium” value is listed as 58 ± 4%. Under setting [3], the “% apo B reduction” value is 62%, the “Apo B μg/mL medium” value stood at 0.35 ± 0.04 μg/mL medium and the “% apo B in medium” value was 38 ± 5%. In addition, under setting [4], the “% apo B reduction” value came to 72%, the “Apo B μg/mL medium” value is on record as 0.26 ± 0.02 μg/mL medium and the “% apo B in medium” value is reported as 28 ± 5%.

On to `COc1ccc(-c2oc3c(OC)c(OC)c(OC)c(OC)c3c(=O)c2OC)cc1OC` [Heptamethoxyflavone, 3,5,6,7,8,3′,4′-heptamethoxyflavone], for which the IC50 stood at 7.8 µg/mL (≈ 18 µM) and the “inhibitory effect on apo-B production” value is “inhibitory effects”. Further, under setting [1], the “% apo B reduction” value is reported as 45%, the “Apo B μg/mL medium” value is 0.138 ± 0.02 μg/mL medium and the “% apo B in medium” value is listed as 55 ± 5%. Besides, under setting [2], the “% apo B reduction” value is recorded as 68%, the “Apo B μg/mL medium” value is given as 0.080 ± 0.02 μg/mL medium and the “% apo B in medium” value is 32 ± 9%. Also, under setting [3], the “% apo B reduction” value came out at 81%, the “Apo B μg/mL medium” value is listed as 0.048 ± 0.01 μg/mL medium and the “% apo B in medium” value is given as 19 ± 3%. Moreover, under setting [4], the “% apo B reduction” value came out at 82%, the “Apo B μg/mL medium” value is 0.045 ± 0.01 μg/mL medium and the “% apo B in medium” value amounted to 18 ± 2%.

In the case of `COc1ccc(-c2cc(=O)c3c(OC)cc(OC)c(OC)c3o2)cc1` [tetra-O-methylisoscutellarein, 5,7,8,4′-tetramethoxyflavone], the “inhibitory effect on apo-B production” value is given as “inhibitory effects”.

For `COc1ccc(-c2oc3c(OC)c(OC)cc(OC(C)=O)c3c(=O)c2OC)cc1OC` [limocitrin-3,7,4′-trimethylether-5-acetate], the “inhibitory effect on apo-B production” value was “inhibitory effects”.

`CCOc1ccc(-c2oc3c(OC)c(OCC)cc(OCC)c3c(=O)c2OCC)cc1OC` [limocitrin-3,5,7,4′-tetraethylether]: the “inhibitory effect on apo-B production” value is given as “inhibitory effects”.

As for `COc1ccc(-c2cc(=O)c3c(OC)c(OC)c(OC)c(OC)c3o2)cc1` [tangeretin, 5,6,7,8,4′-pentamethoxyflavone], the IC50 is 2.5 µg/mL (≈ 6.71 µM) and the “inhibitory effect on apo-B production” value is recorded as “inhibitory effects”. Also, under setting [5], the “% apo B reduction” value is listed as 68%, the “Apo B μg/mL medium” value is 0.080 ± 0.02 μg/mL medium and the “% apo B in medium” value is 32 ± 8%. Besides, under setting [1], the “% apo B reduction” value was found to be 78%, the “Apo B μg/mL medium” value came to 0.055 ± 0.01 μg/mL medium and the “% apo B in medium” value turned out to be 22 ± 2%. In addition, under setting [2], the “% apo B reduction” value was determined as 81%, the “Apo B μg/mL medium” value was determined as 0.048 ± 0.01 μg/mL medium and the “% apo B in medium” value amounted to 19 ± 2%. In addition, under setting [3], the “% apo B reduction” value is 86%, the “Apo B μg/mL medium” value was 0.035 ± 0.01 μg/mL medium and the “% apo B in medium” value is given as 14 ± 1%.

Consider `COc1cc(OC)c2c(=O)c(OC(C)=O)c(-c3ccc(OC)c(OC)c3)oc2c1` [quercetin-5,7,3′,4′-tetramethylether-3-acetate], for which the “inhibitory effect on apo-B production” value is recorded as “inhibitory effects”.

Consider `COc1ccc(-c2cc(=O)c3c(OC)c(OC)c(OC)cc3o2)cc1` [Tetra-O-methyl-Scutellarein], for which, under setting [1], the “% apo B reduction” value was found to be 29%, the “Apo B μg/mL medium” value is listed as 0.305 ± 0.03 μg/mL medium and the “% apo B in medium” value turned out to be 71 ± 7%. Under setting [2], the “% apo B reduction” value was found to be 41%, the “Apo B μg/mL medium” value was determined as 0.255 ± 0.06 μg/mL medium and the “% apo B in medium” value came out at 59 ± 13%.
